What was measured:
Ulcerogenic potential = assay type: in vivo, rat; conditions: oral; 4 hrs after administration; dose selected 50, 100, 200 mg/kg
Description: In order to evaluate compound's role on the ulcer formation, the animals were sacrificed and the stomach was taken out and flushed with 1% formalin. Animals (male wistar 200 gm) were fasted for 18 hrs free access to water and the test compounds were suspended in 0.5% Tween 80 and 0.25% CMC (carboxymethylcellulose) solution to make a uniform suspension. After 4 hrs of oral administration of test compounds, all the animals were sacrificed by cervical dislocation. Dissect the stomach carefully and filled up with a sterile saline solution and embedded in 6% formalin solution. […] Compare the test compound treated groups with the vehicle treated groups. Dose selected: 50, 100, 200 mg/kg (Marco Romano et al, Journal of clinical Investigation, 1992; 2409-2421).

TNF-α = assay: LPS induced sepsis for measurement of TNF-α inhibition in mice; assay type: in vivo; conditions: at 50 mg/kg, oral, serum 90 min after LPS
Description: The LPS induced sepsis model in mice was performed as described by Les sekut et al (J Lab Clin Med 1994; 124:813-20). Female Swiss albino mice were selected and the body weights were equivalent within each group. The mice were fasted for 20 hours with free access to water. The mice were dosed orally with the test compound suspended in vehicle containing 0.5% Tween 80 in 0.25% Carboxy-methylcellulose sodium salt. The control mice were administered the vehicle alone. After 30 min of oral dosing, mice were injected with 500 μg of Lipopolysaccharide (Escherichia coli, LPS: B4 from Sigma) in phosphate buffer saline solution into the intraperitoneal cavity of the mice. After 90 min of LPS administration mice were bled via retro-orbital sinus puncture. Blood samples were stored overnight at 4° C. Serum samples were collected by centrifuging the samples at 400 rpm for 15 min at 4° C. Immediately the serum samples were analysed for TNFα levels using commercially available mouse TNF-α ELISA kit (Amersham Biosciences) and assay was performed by the manufacturer instruction.

CSc1ccc(-c2nc3[nH]nc(N)c3c(=O)n2-c2ccc(C)c(C)c2)cc1 [Example 2, 3-amino-5-(3,4-dimethylphenyl)-6-[4-(methylthio)phenyl]-1,5-dihydro-4H-pyrazolo[3,4-d]pyrimidin-4-one]
Ulcer Incidence (Number of animals/Total number of animals) (Ulcerogenic potential): No ulcer | TNF-α Inhibition (%) (TNF-α): 34.29 (at 50 mg/kg) %
